Experimental data reported in ChEMBL document CHEMBL3045349, “A comparative study on the interference of two herbicides in wheat and italian ryegrass and on their antioxidant activities and detoxification rates” (J Agric Food Chem, 2011).

Columns and labels:
Triticum aestivum [1] = assay: Increase in antioxidant enzyme system in Triticum aestivum (wheat) shoots assessed as increase in dehydroascorbate reductase activity compound administered at rate of 14 mf/flat measured 72 hr post treatment; format: functional
Triticum aestivum [2] = assay: Effect on antioxidant enzyme system in Triticum aestivum (wheat) shoots assessed as glutathione reductase activity per mg protein compound administered at rate of 14 mf/flat measured 24 hr post treatment (reference value: 1.1 nmol/s per mg protein); format: functional
Triticum aestivum [3] = assay: Effect on photosynthetic activity in Triticum aestivum (wheat) shoots assessed as dark respiration rate measured by CO2 production compound administered at rate of 14 mf/flat measured 24 hr post treatment (reference value: -1.35 umol/m2/s); format: functional
Lolium multiflorum [4] = assay: Drug level in Lolium multiflorum (Italian ryegrass) compound administered at rate of 14 mf/flat measured 24 hr post treatment by HPLC; format: ADME, organism-based; conditions: in vivo
Lolium multiflorum [5] = assay: Effect on MDA content in Lolium multiflorum (Italian ryegrass) shoots compound administered at rate of 14 mf/flat measured 48 hr post treatment (reference value: 0.65 uM/L); format: functional
Lolium multiflorum [6] = assay: Effect on photosynthetic activity in Lolium multiflorum (Italian ryegrass) shoots assessed as leaf net photosynthesis rate measured by CO2 production compound administered at rate of 14 mf/flat measured 24 hr post treatment (reference value: 4.55 umol/m2/s); format: functional
Lolium multiflorum [7] = assay: Effect on antioxidant enzyme system in Lolium multiflorum (Italian ryegrass) shoots assessed as glutathione reductase activity per mg protein compound administered at rate of 14 mf/flat measured 48 hr post treatment (reference value: 1.1 nmol/s per mg protein); format: functional
Triticum aestivum [8] = assay: Effect on photosynthetic activity in Triticum aestivum (wheat) shoots assessed as leaf net photosynthesis rate measured by CO2 production compound administered at rate of 14 mf/flat measured 24 hr post treatment (reference value: 1.35 umol/m2/s); format: functional
Triticum aestivum [9] = assay: Effect on antioxidant enzyme system in Triticum aestivum (wheat) shoots assessed as catalase activity per mg protein compound administered at rate of 14 mf/flat measured 72 hr post treatment (reference value: 0.13 nmol/s per mg protein); format: functional
Triticum aestivum [10] = assay: Increase in antioxidant enzyme system in Triticum aestivum (wheat) shoots assessed as increase in ascorbate peroxidase activity compound administered at rate of 14 mf/flat measured 48 hr post treatment; format: functional
Lolium multiflorum [11] = assay: Effect on photosynthetic activity in Lolium multiflorum (Italian ryegrass) shoots assessed as dark respiration rate measured by CO2 production compound administered at rate of 14 mf/flat measured 72 hr post treatment (reference value: -1.32 umol/m2/s); format: functional
Lolium multiflorum [12] = assay: Effect on antioxidant enzyme system in Lolium multiflorum (Italian ryegrass) shoots assessed as glutathione S-transferase activity per mg protein compound administered at rate of 14 mf/flat measured 24 hr post treatment (reference value: 0.34 nmol/s per mg protein); format: functional
Shoot [13] = assay: Drug level in Triticum aestivum (wheat) shoots compound administered at rate of 14 mf/flat measured 72 hr post treatment by HPLC; format: ADME
Triticum aestivum [14] = assay: Effect on antioxidant enzyme system in Triticum aestivum (wheat) shoots assessed as glutathione reductase activity per mg protein compound administered at rate of 14 mf/flat measured 48 hr post treatment (reference value: 1.1 nmol/s per mg protein); format: functional
Lolium multiflorum [15] = assay: Effect on antioxidant enzyme system in Lolium multiflorum (Italian ryegrass) shoots assessed as ascorbate peroxidase activity per mg protein compound administered at rate of 14 mf/flat measured 48 hr post treatment (reference value: 11.6 nmol/s per mg protein); format: functional
Lolium multiflorum [16] = assay: Effect on antioxidant enzyme system in Lolium multiflorum (Italian ryegrass) shoots assessed as glutathione reductase activity per mg protein compound administered at rate of 14 mf/flat measured 24 hr post treatment (reference value: 1.1 nmol/s per mg protein); format: functional
Shoot [17] = assay: Drug level in Lolium multiflorum (Italian ryegrass) shoots compound administered at rate of 14 mf/flat measured 48 hr post treatment by HPLC; format: ADME
Triticum aestivum [18] = assay: Increase in antioxidant enzyme system in Triticum aestivum (wheat) shoots assessed as increase in glutathione reductase activity compound administered at rate of 14 mf/flat measured 24 hr post treatment; format: functional
Lolium multiflorum [19] = assay: Increase in MDA content in Lolium multiflorum (Italian ryegrass) shoots compound administered at rate of 14 mf/flat measured 48 hr post treatment; format: functional
Shoot [20] = assay: Drug level in Triticum aestivum (wheat) shoots compound administered at rate of 14 mf/flat measured 48 hr post treatment by HPLC; format: ADME
Lolium multiflorum [21] = assay: Effect on antioxidant enzyme system in Lolium multiflorum (Italian ryegrass) shoots assessed as ascorbate peroxidase activity per mg protein compound administered at rate of 14 mf/flat measured 48 hr post treatment (reference value: 11.3 nmol/s per mg protein); format: functional
Shoot [22] = assay: Drug level in Lolium multiflorum (Italian ryegrass) shoots compound administered at rate of 14 mf/flat measured 72 hr post treatment by HPLC; format: ADME
Shoot [23] = assay: Drug level in Lolium multiflorum (Italian ryegrass) shoots compound administered at rate of 14 mf/flat measured 24 hr post treatment by HPLC; format: ADME
Triticum aestivum [24] = assay: Effect on antioxidant enzyme system in Triticum aestivum (wheat) shoots assessed as catalase activity per mg protein compound administered at rate of 14 mf/flat measured 24 hr post treatment (reference value: 0.1 nmol/s per mg protein); format: functional
Shoot [25] = assay: Drug level in Lolium multiflorum (Italian ryegrass) shoots compound administered at rate of 14 mf/flat measured 144 hr post treatment by HPLC; format: ADME
Triticum aestivum [26] = assay: Effect on antioxidant enzyme system in Triticum aestivum (wheat) shoots assessed as glutathione S-transferase activity per mg protein compound administered at rate of 14 mf/flat measured 48 hr post treatment (reference value: 2.3 nmol/s per mg protein); format: functional
Lolium multiflorum [27] = assay: Effect on MDA content in Lolium multiflorum (Italian ryegrass) shoots compound administered at rate of 14 mf/flat measured 72 hr post treatment (reference value: 0.67 uM/L); format: functional
Lolium multiflorum [28] = assay: Effect on antioxidant enzyme system in Lolium multiflorum (Italian ryegrass) shoots assessed as catalase activity per mg protein compound administered at rate of 14 mf/flat measured 48 hr post treatment (reference value: 0.10 nmol/s per mg protein); format: functional
Triticum aestivum [29] = assay: Effect on antioxidant enzyme system in Triticum aestivum (wheat) shoots assessed as ascorbate peroxidase activity per mg protein compound administered at rate of 14 mf/flat measured 48 hr post treatment (reference value: 18.4 nmol/s per mg protein); format: functional
Lolium multiflorum [30] = assay: Effect on antioxidant enzyme system in Lolium multiflorum (Italian ryegrass) shoots assessed as catalase activity per mg protein compound administered at rate of 14 mf/flat measured 72 hr post treatment (reference value: 0.12 nmol/s per mg protein); format: functional
Triticum aestivum [31] = assay: Effect on MDA content in Triticum aestivum (wheat) shoots compound administered at rate of 14 mf/flat measured 72 hr post treatment (reference value: 0.050 uM/L); format: functional
Lolium multiflorum [32] = assay: Effect on antioxidant enzyme system in Lolium multiflorum (Italian ryegrass) shoots assessed as glutathione reductase activity per mg protein compound administered at rate of 14 mf/flat measured 72 hr post treatment (reference value: 1.2 nmol/s per mg protein); format: functional

SMILES | Activity (Triticum aestivum [1]) [%] | Activity (Triticum aestivum [2]) [nmol/s/mg protein] | Activity (Triticum aestivum [3]) [micromol/m2/s] | Drug uptake (Lolium multiflorum [4]) [ppm] | Activity (Lolium multiflorum [5]) [µM] | Activity (Lolium multiflorum [6]) [micromol/m2/s] | Activity (Lolium multiflorum [7]) [nmol/s/mg protein] | Activity (Triticum aestivum [8]) [micromol/m2/s] | Activity (Triticum aestivum [9]) [nmol/s] | Activity (Triticum aestivum [10]) [%] | Activity (Lolium multiflorum [11]) [micromol/m2/s] | Activity (Lolium multiflorum [12]) [nmol/s/mg protein] | Drug uptake (Shoot [13]) [ppm] | Activity (Triticum aestivum [14]) [nmol/s/mg protein] | Activity (Lolium multiflorum [15]) [nmol/s/mg protein] | Activity (Lolium multiflorum [16]) [nmol/s/mg protein] | Drug uptake (Shoot [17]) [ppm] | Activity (Triticum aestivum [18]) [%] | Activity (Lolium multiflorum [19]) [%] | Drug uptake (Shoot [20]) [ppm] | other results
CCNc1nc(Cl)nc(NC(C)C)n1 [ATRAZINE] | 21 | 1.5 | -0.51 | 4.75 | 0.85 | -0.61 | 1 | -0.52 | 0.12 | 28 | -1.67 | 0.46 | 1.94 | 1.1 | 12.2 | 1.4 | 5.9 | 36 | 31 | 5.67 | Activity (Lolium multiflorum [21]): 14.2 nmol/s/mg protein; Drug uptake (Shoot [22]): 4.52 ppm; Drug uptake (Shoot [23]): 6 ppm; Activity (Triticum aestivum [24]): 0.1 nmol/s/mg protein; Drug uptake (Shoot [25]): 3.11 ppm; Activity (Triticum aestivum [26]): 1.7 nmol/s/mg protein; Activity (Lolium multiflorum [27]): 0.74 µM; Activity (Lolium multiflorum [28]): 0.1 nmol/s/mg protein; Activity (Triticum aestivum [29]): 23.5 nmol/s/mg protein; Activity (Lolium multiflorum [30]): 0.13 nmol/s/mg protein; Activity (Triticum aestivum [31]): 0.057 µM; Activity (Lolium multiflorum [32]): 1.2 nmol/s/mg protein
O=[N+]([O-])c1ccc(Oc2ccc(C(F)(F)F)cc2[N+](=O)[O-])cc1 [FLUORODIFEN] | 45 | 1.5 | -0.82 | 0.72 | 0.74 | 4.64 | 1 | 1.15 | 0.14 | 10 | -1.06 | 0.67 | 0.2 | 1.2 | 14 | 1.9 | 1.17 | 36 | 14 | 0.27 | Activity (Lolium multiflorum [21]): 15.3 nmol/s/mg protein; Drug uptake (Shoot [22]): 0.46 ppm; Drug uptake (Shoot [23]): 1.4 ppm; Activity (Triticum aestivum [24]): 0.11 nmol/s/mg protein; Drug uptake (Shoot [25]): 0.2 ppm; Activity (Triticum aestivum [26]): 2.2 nmol/s/mg protein; Activity (Lolium multiflorum [27]): 0.74 µM; Activity (Lolium multiflorum [28]): 0.11 nmol/s/mg protein; Activity (Triticum aestivum [29]): 20.2 nmol/s/mg protein; Activity (Lolium multiflorum [30]): 0.13 nmol/s/mg protein; Activity (Triticum aestivum [31]): 0.049 µM; Activity (Lolium multiflorum [32]): 1.1 nmol/s/mg protein
